How the values were obtained:
[1] = Entry of "passive" markers into brain and CSF; conditions: passive marker, all ages (E19, P4, adults), 30 minutes
Description: Experimental procedure. In acute drug experiments, a single dose was injected that included traces of [ ^3H]-labelled drug (20µCi adults, 2µCi newborns). In chronic experiments, doses of unlabelled drug were given twice daily (09.00 and 17.00h) for four days before a final injection on the 5 ^th day identical to acute experiments. In passive marker experiments, all dosing was acute and contained only the [ ^3H]- or [ ^14C]-labelled compound (20µCi adults, 2µCi newborns).
In all experiments involving postnatal animals, injections were intraperitoneal (i.p.). In pregnant animals for fetal drug entry studies, the final injection of the radiolabelled marker was given intravenously (i.v.), as the peritoneal cavity required opening prior to the sampling period to gain access to the fetuses. For passive markers (L-glucose, sucrose and glycerol), fetal animals were individually injected i.p. while still within the uterine horn. All experiments took place between 09.00 and 15.00h. All pregnancy studies were completed with a single treatment group on one day. Postnatal groups were conducted with a single treatment group on one day or with the chronic group completed prior to the acute group.
Sample collection. Samples were collected 30 minutes after the final injection. This duration was chosen partly to limit any potential metabolism of the drugs and markers used but also to allow enough time for i.p. injected markers to reach the blood stream and, from there, to access the brain parenchyma across brain barriers, as well as to limit the CSF sink effect that could influence drug levels ( [Bito et al., 1966]). Thirty minutes is also within the half-life of these drugs ( [Adedoyin et al., 1987]; [Harrison & Gibaldi, 1976]; Lin & Levy, 1963). The other reason a 30-minute duration was chosen is that in the case of exposed fetal rat pups, it is difficult to maintain them in a reasonable physiological state for long periods due to deterioration of placental perfusion. Therefore, for comparative purposes, all studies were conducted at the same time.
For adult and newborn (P4) experiments, animals were terminally anaesthetized using inhaled isofluorane (IsoFlo 100% w/w, Abbott Laboratories). Blood samples were collected from the right cardiac ventricle, CSF from the cisterna magna (Habgood et al., 1992) and cortical segments of brain tissue dorsal to the ventricle of the frontal/parietal lobes, as previously described ( [Koehn et al., 2019]). Blood and CSF sampling from the P4 animals was terminal and would thus not have affected the physiological state of the animals during the experiment.
Sample preparation. Samples were processed immediately after collection. Blood was centrifuged at 7000rpm for five minutes and the plasma separated. CSF samples were examined microscopically for traces of red blood cells and discarded if contaminated (Habgood et al., 1992). In all experiments, the radioactivity in the injectate was also measured to confirm the uniformity of the injected material. All samples were weighed and transferred into scintillation vials. Soluene350 (0.5ml, PerkinElmer) was added to the brain samples. After being incubated at 36°C overnight to allow the tissue to solubilize, two drops of glacial acetic acid (Sigma) were added to neutralize the strongly alkaline Soluene350. All samples were then mixed with 5ml of scintillation fluid (Emulsifier-safe, PerkinElmer) before being transferred into the liquid scintillation counter (Tri-Carb 4910 TR, PerkinElmer) to count radioactivity disintegrations per minute (DPM) over five minutes each with luminescence correction on. Blank vials containing the same tissues without radioactivity were also counted alongside the samples to establish the level of background counts, which were always subtracted from the radioactivity counts of the corresponding experimental samples.
BrainorCSFtransfer=BrainorCSFDPM/μl/plasmaDPM/μl×100%

[2] = Placental transfer at E19 (fetal/maternal plasma concentration ratio); conditions: E19, passive permeability markers, acute; for Fetal/Maternal plasma concentration ratio: mean ± SD

In the case of `O=C[C@@H](O)[C@H](O)[C@@H](O)[C@@H](O)CO` [L-Glucose, L-glucose], the Brain/Plasma Ratio [1] is reported as “very low”, the CSF/Plasma Ratio [1] is reported as “very low” and the “Fetal/Maternal plasma concentration ratio, range” value [2] is reported as “(8.3 - 27.7) %”. The “Fetal/Maternal plasma concentration ratio” value [2] was 16.7 ± 6.5% and the “Fetal/Maternal plasma concentration ratio” value ([2]; listed as L-glucose) was 16.7%.

From PMC6799938, “Determinants of drug entry into the developing brain” (F1000Research, 2019)
